# Values joined by “and” are separate entries in the source; they are usually repeats but may differ in a detail not shown here. Equal entries are not always repeated.
# Columns and labels:
# VTC1ΔC = biological target: T1, VTC1ΔC (Arabidopsis thaliana, UniProt O22287); test: GMPase assay, malachite green phosphate release after pyrophosphatase; assay type: biochemical; details: 0.2 mM Man-1-P, 0.2 mM GTP, 1 mM MgCl2, 1 mM DTT, 50 mM Tris-HCl pH 7.5, 37 °C, 0.2 μM enzyme
# T1 construct: gene CYT1; truncation lacking the C-terminal 139 residues (LβH domain region removed); catalytic domain; recombinant, purified as full-length VTC1
# VTC1 = biological target: T2, VTC1 (Arabidopsis thaliana, UniProt O22287); test: X-ray crystal structure, […] Å; assay type: binding
# T2 construct: gene CYT1; full-length recombinant, 41 kDa; dimer, tetramer and aggregate in SEC
# T2 sequence (O22287 1-361): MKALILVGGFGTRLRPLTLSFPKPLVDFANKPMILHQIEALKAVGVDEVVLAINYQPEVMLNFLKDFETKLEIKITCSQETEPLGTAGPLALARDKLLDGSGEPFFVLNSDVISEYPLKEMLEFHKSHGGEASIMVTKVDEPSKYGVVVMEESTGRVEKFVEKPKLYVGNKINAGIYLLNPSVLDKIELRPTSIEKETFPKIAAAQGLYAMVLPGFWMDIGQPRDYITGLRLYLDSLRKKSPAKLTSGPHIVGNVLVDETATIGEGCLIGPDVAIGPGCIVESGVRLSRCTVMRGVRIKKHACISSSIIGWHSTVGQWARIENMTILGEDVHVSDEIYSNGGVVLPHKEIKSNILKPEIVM
# [1] = biological target: the molecule itself; test: crystal structure; product-bound VTC1 (GDP-Man, PPi, citrate), 3.0 Å, space group R32, two dimers in the asymmetric unit, threefold symmetry
# [2] = biological target: the molecule itself; test: SEC; HiLoad 16/60 Superdex 200 column; purified recombinant VTC1; three peaks compared with protein standards
molecule,measurement,setting,value
O=P(O)(O)O[C@H]1O[C@H](CO)[C@@H](O)[C@H](O)[C@@H]1O [D-mannose-1-phosphate],"GMPase assay, malachite green phosphate release after pyrophosphatase",VTC1ΔC,"VTC1ΔC retained, but only ca. one third of the GMPase activity"
Nc1nc2c(ncn2[C@@H]2O[C@H](COP(=O)(O)OP(=O)(O)O[C@H]3O[C@H](CO)[C@@H](O)[C@H](O)[C@@H]3O)[C@@H](O)[C@H]2O)c(=O)[nH]1 [GDP-D-mannose],"X-ray crystal structure, 3.0 Å","VTC1; active site of catalytic domain, bound in middle protomer, citrate also bound",The product GDP-Man binds at the edge of the central β-sheet (Figure 4C).
Nc1nc2c(ncn2[C@@H]2O[C@H](COP(=O)(O)OP(=O)(O)OP(=O)(O)O)[C@@H](O)[C@H]2O)c(=O)[nH]1 [GTP],"GMPase assay, malachite green phosphate release after pyrophosphatase",VTC1ΔC,"VTC1ΔC retained, but only ca. one third of the GMPase activity"
O=P(O)(O)OP(=O)(O)O [inorganic pyrophosphate],"X-ray crystal structure, 3.0 Å","VTC1; catalytic domain, β1–η1 loop, bound in inner and outer protomers, same site as citrate",the inner and outer protomers each bind a PPi
"Arabidopsis thaliana GDP-D-mannose pyrophosphorylase VITAMIN C … 1 (enzyme, UniProt O22287 1-361, looked up, VTC1 (GDP-D-mannose pyrophosphorylase), Arabidopsis thaliana, full-length; recombinant protein stated to have a molecular weight of 41 kDa; also called VTC1; GMPase; source: recombinant, purified (SEC on HiLoad 16/60 Superdex 200); production described previously (Zhao and Liu, 2016)) MKALILVGGFGTRLRPLTLSFPKPLVDFANKPMILHQIEALKAVGVDEVVLAINYQPEVMLNFLKDFETKLEIKITCSQETEPLGTAGPLALARDKLLDGSGEPFFVLNSDVISEYPLKEMLEFHKSHGGEASIMVTKVDEPSKYGVVVMEESTGRVEKFVEKPKLYVGNKINAGIYLLNPSVLDKIELRPTSIEKETFPKIAAAQGLYAMVLPGFWMDIGQPRDYITGLRLYLDSLRKKSPAKLTSGPHIVGNVLVDETATIGEGCLIGPDVAIGPGCIVESGVRLSRCTVMRGVRIKKHACISSSIIGWHSTVGQWARIENMTILGEDVHVSDEIYSNGGVVLPHKEIKSNILKPEIVM",stoichiometry N,[1],12
same,stoichiometry N,[2],2 and 4

# From PMC9168903, “Crystal Structures of Arabidopsis thaliana GDP-D-Mannose Pyrophosphorylase VITAMIN C DEFECTIVE 1” (Frontiers in Plant Science, 2022)
